Calls of active or inactive are those of the source. The calls are words filed in the database; no cut-off is given here.
Key:
Staphylococcus aureus [1] = assay: Upregulation of cidA gene expression in methicillin resistant Staphylococcus aureus N315 at 4 ug/ml incubated for 4 hrs by RNA-sequencing analysis; assay type: functional; settings: dose 4.0 µg/ml
Staphylococcus aureus [2] = assay: Antibacterial activity against methicillin resistant Staphylococcus aureus M21 incubated for 16 to 18 hrs by broth dilution method; assay type: functional; settings: time 16-18 hrs
[3] = Hemolytic activity in sheep RBC incubated for 1 hr; assay type: toxicity, cell-based, Ovis aries, Erythrocyte; settings: sheep red blood cells (erythrocytes)
Staphylococcus aureus [4] = assay: Antibacterial activity against methicillin resistant Staphylococcus aureus 20 incubated for 16 to 18 hrs in presence of 32 ug/ml cardiolipin by checkerboard broth dilution method; assay type: functional; settings: time 16-18 hrs
Cell membrane [5] = assay: Induction of membrane disruption in methicillin resistant Staphylococcus aureus 20 assessed as increase in red fluorescence signal incubated for 2 hrs by SYTO9/PI staining based flow cytometry analysis; settings: dose 8-128 µg/ml
Staphylococcus aureus [6] = assay: Antibacterial activity against methicillin resistant Staphylococcus aureus 20 infected in Kunming mouse skin abscess model assessed as reduction in TNF-alpha level at 5 to 10 mg/kg, sc measured after 2 hrs by ELISA; assay type: functional, organism-based; settings: dose 5-10 mg/kg
[7] = Toxicity in Kunming mouse assessed as change in mean corpuscular volume at 20 mg/kg, sc measured after 24 hrs; assay type: organism-based; settings: in vivo
Staphylococcus aureus [8] = assay: Antibacterial activity against methicillin resistant Staphylococcus aureus M17 incubated for 16 to 18 hrs by broth dilution method; assay type: functional; settings: time 16-18 hrs
Staphylococcus aureus [9] = assay: Antibacterial activity against methicillin resistant Staphylococcus aureus M20 incubated for 16 to 18 hrs by broth dilution method; assay type: functional; settings: time 16-18 hrs
Cell membrane [10] = assay: Induction of membrane disruption in methicillin resistant Staphylococcus aureus 20 assessed as increase in intracellular ROS level incubated for 1 hr by DCFH-DA staining based analysis; assay type: cell membranes; settings: dose 2-128 µg/ml
Cell membrane [11] = assay: Induction of membrane disruption in methicillin resistant Staphylococcus aureus 20 assessed as viable cells with intact membrane at 64 ug/ml incubated for 2 hrs by SYTO9/PI staining based flow cytometry analysis (reference value: 98.7%); assay type: cell membranes; settings: dose 64.0 µg/ml
Cell membrane [12] = assay: Induction of membrane disruption in methicillin resistant Staphylococcus aureus 20 at 16 ug/ml incubated for 4 hrs by DAPI/PI staining based laser confocal microscopic analysis; settings: dose 16.0 µg/ml
[13] = Toxicity in Kunming mouse assessed as effect on survival at 5 to 80 mg/kg, sc measured after 24 hrs; assay type: organism-based; settings: in vivo, dose 5-80 mg/kg
Staphylococcus aureus [14] = assay: Downregulation of srtA gene expression in methicillin resistant Staphylococcus aureus N315 at 4 ug/ml incubated for 4 hrs by RNA-sequencing analysis; assay type: functional; settings: dose 4.0 µg/ml
Staphylococcus aureus [15] = assay: Antibacterial activity against methicillin resistant Staphylococcus aureus 20 infected in Kunming mouse skin abscess model assessed as reduction in inflammatory cells in infection sites at 5 to 10 mg/kg, sc measured after 2 hrs; assay type: functional, organism-based; settings: dose 5-10 mg/kg
Staphylococcus aureus [16] = assay: Antibacterial activity against Staphylococcus aureus ATCC 29213 after 20 passages incubated for 16 to 18 hrs; assay type: functional; settings: time 16-18 hrs
Escherichia coli = assay: Antibacterial activity against Escherichia coli ATCC 25922 incubated for 16 to 18 hrs by broth dilution method; assay type: functional; settings: time 16-18 hrs
Staphylococcus aureus [17] = assay: Antibacterial activity against methicillin resistant Staphylococcus aureus 20 incubated for 16 to 18 hrs in presence of 2 to 64 ug/ml phosphatidylglycerol by checkerboard broth dilution method; assay type: functional, organism-based; settings: time 16-18 hrs
Cell membrane [18] = assay: Induction of membrane disruption in methicillin resistant Staphylococcus aureus 20 assessed as viable cells with intact membrane at 128 ug/ml incubated for 2 hrs by SYTO9/PI staining based flow cytometry analysis (reference value: 98.7%); assay type: cell membranes; settings: dose 128.0 µg/ml
[19] = Cytotoxicity against human L02 cells assessed as survival rate at 16 ug/ml incubated for 24 hrs by CCK8 assay; assay type: toxicity, cell-based; settings: at 16 µg/mL, read-out: Survival
Cell membrane [20] = assay: Induction of membrane depolarization in methicillin resistant Staphylococcus aureus 20 assessed as increase in fluorescence intensity measured at 2 mins interval over 20 mins by DiSC3(5) staining based assay; settings: dose 16-64 µg/ml
Staphylococcus aureus [21] = assay: Antibacterial activity against Staphylococcus aureus ATCC 29213 incubated for 16 to 18 hrs by broth dilution method; assay type: functional; settings: time 16-18 hrs
Cell membrane [22] = assay: Induction of membrane disruption in methicillin resistant Staphylococcus aureus 20 assessed as DNA leakage incubated for 4 hrs by microspectrophotometer analysis; assay type: cell membranes; settings: dose 2-16 µg/ml
Staphylococcus aureus [23] = assay: Inhibition of methionine synthesis in methicillin resistant Staphylococcus aureus N315 at 4 ug/ml incubated for 4 hrs by RNA-sequencing analysis; assay type: functional, organism-based; settings: dose 4.0 µg/ml
Cell membrane [24] = assay: Induction of membrane disruption in methicillin resistant Staphylococcus aureus 20 assessed as intracellular protein leakage incubated for 4 hrs by microspectrophotometer analysis; assay type: cell membranes; settings: dose 2-16 µg/ml
Staphylococcus aureus [25] = assay: Upregulation of mspA gene expression in methicillin resistant Staphylococcus aureus N315 at 4 ug/ml incubated for 4 hrs by RNA-sequencing analysis; assay type: functional; settings: dose 4.0 µg/ml
Staphylococcus aureus [26] = assay: Antibacterial activity against methicillin resistant Staphylococcus aureus N315 incubated for 16 to 18 hrs by broth dilution method; assay type: functional; settings: time 16-18 hrs
[27] = Toxicity in Kunming mouse assessed as change in creatinine level at 20 mg/kg, sc measured after 24 hrs; assay type: organism-based; settings: in vivo
Cell membrane [28] = assay: Induction of membrane disruption in methicillin resistant Staphylococcus aureus 20 assessed as wrinkled membrane at 16 times MIC incubated for 4 hrs by SEM analysis; assay type: cell membranes
[29] = Toxicity in Kunming mouse assessed as skin swelling at 40 to 80 mg/kg, sc measured after 24 hrs; assay type: organism-based; settings: in vivo, dose 40-80 mg/kg
[30] = Toxicity in Kunming mouse assessed as spleen abnormalities at 10 mg/kg, sc measured after 24 hrs; assay type: organism-based; settings: in vivo
Staphylococcus aureus [31] = assay: Antibacterial activity against methicillin resistant Staphylococcus aureus 20 incubated for 16 to 18 hrs in presence of 2 to 64 ug/ml cardiolipin by checkerboard broth dilution method; assay type: functional, organism-based; settings: time 16-18 hrs
Cell membrane [32] = assay: Induction of membrane permeability in methicillin resistant Staphylococcus aureus 20 at 16 to 64 ug/ml measured at 2 mins interval over 20 mins by SYTOX green staining based assay; settings: dose 16-64 µg/ml
[33] = Toxicity in Kunming mouse assessed as change in albumin level at 20 mg/kg, sc measured after 24 hrs; assay type: organism-based; settings: in vivo
Staphylococcus aureus [34] = assay: Antibacterial activity against methicillin resistant Staphylococcus aureus 20 incubated for 16 to 18 hrs in presence of 2 to 64 ug/ml peptidoglycan by checkerboard broth dilution method; assay type: functional, organism-based; settings: time 16-18 hrs
Staphylococcus aureus [35] = assay: Antibacterial activity against methicillin resistant Staphylococcus aureus M12 incubated for 16 to 18 hrs by broth dilution method; assay type: functional; settings: time 16-18 hrs
Staphylococcus aureus [36] = assay: Inhibition of lysine synthesis in methicillin resistant Staphylococcus aureus N315 at 4 ug/ml incubated for 4 hrs by RNA-sequencing analysis; assay type: functional, organism-based; settings: dose 4.0 µg/ml
Staphylococcus aureus [37] = assay: Antibacterial activity against methicillin resistant Staphylococcus aureus M13 incubated for 16 to 18 hrs by broth dilution method; assay type: functional; settings: time 16-18 hrs
[38] = Toxicity in Kunming mouse assessed as change in hematocrit level at 20 mg/kg, sc measured after 24 hrs; assay type: organism-based; settings: in vivo
Staphylococcus aureus [39] = assay: Inhibition of DNA replication in methicillin resistant Staphylococcus aureus N315 at 4 ug/ml incubated for 4 hrs by RNA-sequencing analysis; assay type: functional, organism-based; settings: dose 4.0 µg/ml
Staphylococcus aureus [40] = assay: Inhibition of transcription in methicillin resistant Staphylococcus aureus N315 at 4 ug/ml incubated for 4 hrs by RNA-sequencing analysis; assay type: functional, organism-based; settings: dose 4.0 µg/ml

## C=CCc1cc(-c2ccc(OCCC[N+](C)(C)CC(=O)NCCCC)c(CC=C)c2)c2oc(-c3c(Cl)cccc3Cl)nc2c1.[Br-]
Staphylococcus aureus [1]
  Activity: Active
Staphylococcus aureus [2]
  MIC: 4 µg/mL
[3]
  HC50 at 1 h: 218 µg/mL
Staphylococcus aureus [4]
  MIC: 32 µg/mL
Cell membrane [5]
  Activity: Dose-Dependent Effect
Staphylococcus aureus [6]
  Activity: Active
[7]
  Activity: Non-Toxic
Staphylococcus aureus [8]
  MIC: 2 µg/mL
Staphylococcus aureus [9]
  MIC: 2 µg/mL
Cell membrane [10]
  Activity: Dose-Dependent Effect
Cell membrane [11]
  Activity: 0.28%
Cell membrane [12]
  Activity: Active
[13]
  Activity: Non-Toxic
Staphylococcus aureus [14]
  Activity: Active
Staphylococcus aureus [15]
  Activity: Active
Staphylococcus aureus [16]
  MIC: 2 µg/mL
Escherichia coli
  MIC: 128 µg/mL
Staphylococcus aureus [17]
  Activity: inactive
Cell membrane [18]
  Activity: 0%
[19]
  viability at 24 h, 16 ug/ml: 75%
Cell membrane [20]
  Activity: Dose-Dependent Effect
Staphylococcus aureus [21]
  MIC: 2 µg/mL
Cell membrane [22]
  Activity: Dose-Dependent Effect
Staphylococcus aureus [23]
  inhibition: Active
Cell membrane [24]
  Activity: Dose-Dependent Effect
Staphylococcus aureus [25]
  Activity: Active
Staphylococcus aureus [26]
  MIC: 4 µg/mL
[27]
  Activity: Non-Toxic
Cell membrane [28]
  Activity: Active
[29]
  Activity: Toxic
[30]
  Activity: Non-Toxic
Staphylococcus aureus [31]
  Activity: inactive
Cell membrane [32]
  Activity: Active
[33]
  Activity: Non-Toxic
Staphylococcus aureus [34]
  Activity: Active
Staphylococcus aureus [35]
  MIC: 4 µg/mL
Staphylococcus aureus [36]
  inhibition: Active
Staphylococcus aureus [37]
  MIC: 8 µg/mL
[38]
  Activity: Non-Toxic
Staphylococcus aureus [39]
  inhibition: Active
Staphylococcus aureus [40]
  inhibition: Active

From ChEMBL document CHEMBL5608246, “Membrane-Targeting Amphiphilic Honokiol Derivatives Containing an Oxazole Moiety as Potential Antibacterials against Methicillin-Resistant Staphylococcus aureus” (J Med Chem, 2024)
